According to PMC4006130 (Pflugers Archiv, 2013):

Molecular target: NHE1 (Rattus norvegicus, UniProt P26431)
Experiment: BCECF intracellular pH recovery after ammonium prepulse
Assay type: cell-based

Chain of NHE1 (P26431 whole entry): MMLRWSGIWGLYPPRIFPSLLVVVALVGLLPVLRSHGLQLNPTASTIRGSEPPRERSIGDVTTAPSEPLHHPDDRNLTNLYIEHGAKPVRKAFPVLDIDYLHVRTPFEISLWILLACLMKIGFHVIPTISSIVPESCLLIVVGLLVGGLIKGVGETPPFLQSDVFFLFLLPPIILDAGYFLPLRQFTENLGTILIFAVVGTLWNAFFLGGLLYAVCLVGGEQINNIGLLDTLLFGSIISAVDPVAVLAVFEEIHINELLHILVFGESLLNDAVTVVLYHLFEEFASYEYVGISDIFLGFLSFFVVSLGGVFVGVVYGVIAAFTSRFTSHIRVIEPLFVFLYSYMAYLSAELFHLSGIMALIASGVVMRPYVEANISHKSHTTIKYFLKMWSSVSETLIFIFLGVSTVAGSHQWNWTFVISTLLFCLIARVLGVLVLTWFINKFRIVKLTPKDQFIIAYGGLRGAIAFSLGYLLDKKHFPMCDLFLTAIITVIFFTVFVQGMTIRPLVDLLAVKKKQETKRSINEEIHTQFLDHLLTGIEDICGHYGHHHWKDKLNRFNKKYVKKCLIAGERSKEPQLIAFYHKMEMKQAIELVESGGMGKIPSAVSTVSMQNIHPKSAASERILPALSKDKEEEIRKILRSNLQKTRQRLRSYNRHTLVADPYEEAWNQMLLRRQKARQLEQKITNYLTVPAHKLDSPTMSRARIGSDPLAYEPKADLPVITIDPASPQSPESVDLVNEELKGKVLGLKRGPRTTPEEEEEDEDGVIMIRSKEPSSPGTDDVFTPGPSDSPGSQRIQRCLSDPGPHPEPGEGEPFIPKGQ

IC50: 1100 nM
SMILES: CC(C)c1ccc(C(=O)NC(=N)N)cc1S(C)(=O)=O [cariporide]
